Laboratory results reported in PubChem BioAssay AID220 (DTP/NCI, 2004).
Values joined by “and” are separate entries in the source; they are usually repeats but may differ in a detail not shown here. Equal values may be shown once. Inconclusive results are not listed.

Tested on: CD8F1 mice, subcutaneous mammary adenocarcinoma, T/C%
Assay: NCI In Vivo Anticancer Drug Screen. Data for tumor model Mammary Adenocarcinoma CD8F1 (subcutaneous) in CD8F1
Details: higher = larger tumour
Summary of the method: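 Compound-treated versus vehicle-treated mice with transplantable tumors; survival or tumor size compared as T/C.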

[1] = endpoint: median tumor weight change, dose: 125.0 mg/kg/injection, schedule: Q01DX001 (ip), vehicle: Klucel (hydroxypropylcellulose) (HPC)
[2] = endpoint: median tumor weight (est.), dose: 50.0 mg/kg/injection, schedule: Q07DX005 (ip), vehicle: saline
[3] = endpoint: median tumor weight (est.), dose: 400.0 mg/kg/injection, schedule: Q07DX005 (ip), vehicle: saline

For `COc1cc(C(=O)c2cc3c(cc2C)OCO3)cc(OC)c1OC`, the T/C [1] was 59 % of control and 75 % of control, the T/C (endpoint: median tumor weight change, dose: 250.0 mg/kg/injection, schedule: Q01DX001 (ip), vehicle: Klucel (hydroxypropylcellulose) (HPC)) was 47 % of control and 54 % of control and the T/C (endpoint: median tumor weight change, dose: 500.0 mg/kg/injection, schedule: Q01DX001 (ip), vehicle: Klucel (hydroxypropylcellulose) (HPC)) was 70 % of control.
`O=C(O)O` was tested, and the T/C [2] was 104 % of control and the T/C [3] was 72 % of control and 55 % of control.
For `Nc1nc2c(C(=O)N3CCCC3)nnn2c2ccccc12`, the T/C (endpoint: median tumor weight change, dose: 62.5 mg/kg/injection, schedule: Q01DX001 (ip), vehicle: saline with Tween-80) was 77 % of control and the T/C (endpoint: median tumor weight change, dose: 125.0 mg/kg/injection, schedule: Q01DX001 (ip), vehicle: saline with Tween-80) was 87 % of control.
`C[C@@]12C(=O)OC(=O)[C@]1(C)[C@H]1CC[C@@H]2O1` was tested, and the T/C (endpoint: median tumor weight change, dose: 0.31 mg/kg/injection, schedule: Q01DX001 (ip), vehicle: Klucel (hydroxypropylcellulose) (HPC)) was 100 % of control and the T/C (endpoint: median tumor weight change, dose: 1.25 mg/kg/injection, schedule: Q01DX001 (ip), vehicle: Klucel (hydroxypropylcellulose) (HPC)) was 118 % of control.
With `c1ccc2c(NCCCCCCNc3c4ccccc4nc4ccccc34)c3ccccc3nc2c1` the T/C (endpoint: median tumor weight (est.), dose: 1.25 mg/kg/injection, schedule: Q07DX005 (ip), vehicle: Klucel (hydroxypropylcellulose) (HPC)) was 97 % of control, the T/C (endpoint: median tumor weight (est.), dose: 2.5 mg/kg/injection, schedule: Q07DX005 (ip), vehicle: Klucel (hydroxypropylcellulose) (HPC)) was 95 % of control and the T/C (endpoint: median tumor weight (est.), dose: 5.0 mg/kg/injection, schedule: Q07DX005 (ip), vehicle: Klucel (hydroxypropylcellulose) (HPC)) was 58 % of control. The T/C (endpoint: median tumor weight (est.), dose: 20.0 mg/kg/injection, schedule: Q07DX005 (ip), vehicle: Klucel (hydroxypropylcellulose) (HPC)) was 47 % of control.
With `CCCC(=O)O.CCCC(=O)O.CCCC(=O)O.CCCC(=O)O.[Rh].[Rh]` the T/C (endpoint: median tumor weight change, dose: 0.62 mg/kg/injection, schedule: Q01DX001 (ip), vehicle: saline + alcohol) was 116 % of control, the T/C (endpoint: median tumor weight change, dose: 1.25 mg/kg/injection, schedule: Q01DX001 (ip), vehicle: saline + alcohol) was 81 % of control and 90 % of control and the T/C (endpoint: median tumor weight change, dose: 2.5 mg/kg/injection, schedule: Q01DX001 (ip), vehicle: saline + alcohol) was 56 % of control.
`O=C1c2ccccc2C(=O)c2c(NCCNCCO)ccc(O)c21` was tested, and the T/C (endpoint: median tumor weight change, dose: 25.0 mg/kg/injection, schedule: Q01DX001 (ip), vehicle: saline with Tween-80) was 91 % of control, the T/C (endpoint: median tumor weight change, dose: 50.0 mg/kg/injection, schedule: Q01DX001 (ip), vehicle: saline with Tween-80) was 44 % of control and the T/C (endpoint: median tumor weight change, dose: 100.0 mg/kg/injection, schedule: Q01DX001 (ip), vehicle: saline with Tween-80) was 41 % of control. The T/C (endpoint: median tumor weight change, dose: 200.0 mg/kg/injection, schedule: Q01DX001 (ip), vehicle: saline with Tween-80) was 33 % of control.
In the case of `C1CC[N-]CC1.[Cl][Pt+2][Cl].[NH-]C1CC1`, the T/C (endpoint: median tumor weight change, dose: 31.0 mg/kg/injection, schedule: Q01DX001 (ip), vehicle: water) is reported as 116 % of control, the T/C (endpoint: median tumor weight change, dose: 62.0 mg/kg/injection, schedule: Q01DX001 (ip), vehicle: water) is reported as 121 % of control and the T/C (endpoint: median tumor weight change, dose: 62.5 mg/kg/injection, schedule: Q01DX001 (ip), vehicle: distilled water + Tween-80) is reported as 26 % of control. The T/C (endpoint: median tumor weight change, dose: 125.0 mg/kg/injection, schedule: Q01DX001 (ip), vehicle: water) was 21 % of control.
For `O=S(=O)(c1ccccc1)N1CN2CCN(C2)C1`, the T/C (endpoint: median tumor weight (est.), dose: 25.0 mg/kg/injection, schedule: Q07DX005 (ip), vehicle: saline with Tween-80) was 55 % of control and 72 % of control and the T/C (endpoint: median tumor weight (est.), dose: 200.0 mg/kg/injection, schedule: Q07DX005 (ip), vehicle: saline with Tween-80) was 66 % of control and 79 % of control.
With `CC1(C)COCN1COCCOCN1COCC1(C)C` the T/C (endpoint: median tumor weight change, dose: 25.0 mg/kg/injection, schedule: Q01DX001 (ip), vehicle: saline) was 100 % of control, the T/C (endpoint: median tumor weight change, dose: 50.0 mg/kg/injection, schedule: Q01DX001 (ip), vehicle: saline) was 109 % of control and the T/C (endpoint: median tumor weight change, dose: 100.0 mg/kg/injection, schedule: Q01DX001 (ip), vehicle: saline) was 95 % of control.
With `C[CH2][Ge]1([CH2]C)[CH2]CC2(CCN(CCCN(C)C)C2)C[CH2]1` the T/C (endpoint: mean tumor weight, dose: 25.0 mg/kg/injection, schedule: Q04DX009 (ip), vehicle: saline) was 113 % of control, the T/C (endpoint: mean tumor weight, dose: 50.0 mg/kg/injection, schedule: Q04DX009 (ip), vehicle: saline) was 87 % of control and the T/C (endpoint: mean tumor weight, dose: 100.0 mg/kg/injection, schedule: Q04DX009 (ip), vehicle: saline) was 40 % of control. The T/C (endpoint: median tumor weight (est.), dose: 2.0 mg/kg/injection, schedule: Q07DX005 (ip), vehicle: saline) was 67 % of control, the T/C (endpoint: median tumor weight (est.), dose: 4.0 mg/kg/injection, schedule: Q07DX005 (ip), vehicle: saline) was 57 % of control and the T/C (endpoint: median tumor weight (est.), dose: 16.0 mg/kg/injection, schedule: Q07DX005 (ip), vehicle: saline) was 74 % of control. For the same molecule, the T/C (endpoint: median tumor weight (est.), dose: 32.0 mg/kg/injection, schedule: Q07DX005 (ip), vehicle: saline) was 55 % of control and 68 % of control and the T/C (endpoint: median tumor weight (est.), dose: 64.0 mg/kg/injection, schedule: Q07DX005 (ip), vehicle: saline) was 67 % of control and 77 % of control.
With `COc1cc2oc(=O)ccc2cc1[C@@H]1OC(=O)C2(C)O[C@@H]12` (stereo partly drawn) the T/C (endpoint: median tumor weight (est.), dose: 0.94 mg/kg/injection, schedule: Q07DX005 (ip), vehicle: water) was 174 % of control, the T/C (endpoint: median tumor weight (est.), dose: 3.75 mg/kg/injection, schedule: Q07DX005 (ip), vehicle: water) was 101 % of control and the T/C (endpoint: median tumor weight (est.), dose: 7.5 mg/kg/injection, schedule: Q07DX005 (ip), vehicle: water) was 105 % of control. The T/C (endpoint: median tumor weight (est.), dose: 15.0 mg/kg/injection, schedule: Q07DX005 (ip), vehicle: water) was 124 % of control.
With `CCCCCCCCCCCCCCC/C([O-])=N/[N+](C)(C)CC(C)O` (stereo not drawn) the T/C (endpoint: median tumor weight change, dose: 125.0 mg/kg/injection, schedule: Q01DX001 (ip), vehicle: saline) was 49 % of control, the T/C (endpoint: median tumor weight change, dose: 250.0 mg/kg/injection, schedule: Q01DX001 (ip), vehicle: saline) was 96 % of control and the T/C (endpoint: median tumor weight change, dose: 500.0 mg/kg/injection, schedule: Q01DX001 (ip), vehicle: saline) was 69 % of control.
`CCC12C[N+]3([O-])CCc4c([nH]c5ccccc45)C(C(=O)OC)(c4cc5c(cc4OC)N(C)C4C(O)(C(=O)OC)C(OC(C)=O)C6(CC)C=CCN7CCC54C76)CC(C3)C1O2` (stereo not drawn) was tested, and the T/C (endpoint: median tumor weight change, dose: 6.25 mg/kg/injection, schedule: Q01DX001 (ip), vehicle: water) was 199 % of control, the T/C (endpoint: median tumor weight change, dose: 12.5 mg/kg/injection, schedule: Q01DX001 (ip), vehicle: water) was 73 % of control and the T/C (endpoint: median tumor weight change, dose: 25.0 mg/kg/injection, schedule: Q01DX001 (ip), vehicle: water) was 87 % of control. The T/C (endpoint: median tumor weight change, dose: 50.0 mg/kg/injection, schedule: Q01DX001 (ip), vehicle: water) was 92 % of control and the T/C (endpoint: median tumor weight change, dose: 100.0 mg/kg/injection, schedule: Q01DX001 (ip), vehicle: water) was 81 % of control.
`Cc1ccc(S(=O)(=O)NC(=O)C2C(=O)CC3(CCCCC3)CC2=O)cc1` was tested, and the T/C (endpoint: median tumor weight change, dose: 31.25 mg/kg/injection, schedule: Q01DX001 (ip), vehicle: Klucel (hydroxypropylcellulose) (HPC)) was 93 % of control, the T/C (endpoint: median tumor weight change, dose: 62.5 mg/kg/injection, schedule: Q01DX001 (ip), vehicle: Klucel (hydroxypropylcellulose) (HPC)) was 101 % of control and the T/C [1] was 122 % of control.
With `BrCCC1(CCBr)CCCCC1` the T/C (endpoint: median tumor weight change, dose: 125.0 mg/kg/injection, schedule: Q01DX001 (ip), vehicle: other) was 80 % of control, the T/C (endpoint: median tumor weight change, dose: 250.0 mg/kg/injection, schedule: Q01DX001 (ip), vehicle: other) was 79 % of control and the T/C (endpoint: median tumor weight change, dose: 500.0 mg/kg/injection, schedule: Q01DX001 (ip), vehicle: other) was 83 % of control. For the same molecule, the T/C (endpoint: median tumor weight change, dose: 1000.0 mg/kg/injection, schedule: Q01DX001 (ip), vehicle: other) was 109 % of control and the T/C (endpoint: median tumor weight change, dose: 2000.0 mg/kg/injection, schedule: Q01DX001 (ip), vehicle: other) was 119 % of control.
`Nc1nc(=O)n(C2OC(CO)C(O)C2O)cc1F` (stereo not drawn) was tested, and the T/C (endpoint: median tumor weight (est.), dose: 12.5 mg/kg/injection, schedule: Q07DX005 (ip), vehicle: saline) was 91 % of control, the T/C (endpoint: median tumor weight (est.), dose: 25.0 mg/kg/injection, schedule: Q07DX005 (ip), vehicle: saline) was 93 % of control and the T/C [2] was 61 % of control. For the same molecule, the T/C (endpoint: median tumor weight (est.), dose: 100.0 mg/kg/injection, schedule: Q07DX005 (ip), vehicle: saline) was 78 % of control, the T/C (endpoint: median tumor weight (est.), dose: 200.0 mg/kg/injection, schedule: Q07DX005 (ip), vehicle: saline) was 46 % of control and the T/C [3] was 34 % of control.
In the case of `COc1cc2cc(c1Cl)N(C)C(=O)CC(OC(=O)C(C)N(C)C(=O)C(C)C)C1(C)OC1C(C)C1CC(O)(NC(=O)O1)C(OC)/C=C/C=C(C)C2OC` (stereo not drawn), the T/C (endpoint: median tumor weight change, dose: 16.0 micrograms/kg/injection, schedule: Q01DX001 (ip), vehicle: Klucel (hydroxypropylcellulose) (HPC)) is reported as 73 % of control, the T/C (endpoint: median tumor weight change, dose: 32.0 micrograms/kg/injection, schedule: Q01DX001 (ip), vehicle: Klucel (hydroxypropylcellulose) (HPC)) is reported as 124 % of control and the T/C (endpoint: median tumor weight change, dose: 64.0 micrograms/kg/injection, schedule: Q01DX001 (ip), vehicle: Klucel (hydroxypropylcellulose) (HPC)) is reported as 82 % of control. The T/C (endpoint: median tumor weight change, dose: 128.0 micrograms/kg/injection, schedule: Q01DX001 (ip), vehicle: Klucel (hydroxypropylcellulose) (HPC)) was 80 % of control and the T/C (endpoint: median tumor weight change, dose: 256.0 micrograms/kg/injection, schedule: Q01DX001 (ip), vehicle: Klucel (hydroxypropylcellulose) (HPC)) was 64 % of control.
